System: CMV AD169^IE2-YFP
Experiment: Anti-CMV activity (IC50) of NAPA compounds, AD169 IE2-YFP reporter virus high-content assay in fibroblasts
Type: cell-based, Human cytomegalovirus
Description: To identify CMV inhibitors, a high-content screening (HCS) early-stage-specific reporter assay using a CMV AD169 yellow-fluorescent protein (YFP) expressing virus (AD169^IE2-YFP) (Gardner et al., Antiviral Res., 113:49-61 (2015)) was developed to screen >112,000 compounds to identify potent inhibitors (IC50<10 μM) of cytomegalovirus having a minimal mammalian cytotoxicity (CC50) of preferably ≥100 μM. As a result, we have identified, isolated, and characterized a novel series of N-arylpyrimidinamines (NAPAs) that inhibit CMV infection. […] Further, the NAPA compounds are broadly effective at inhibiting virus infection of diverse strains and cell types.
The CMV IE1 and IE2 gene products are translated within 3-6 hours post infection (hpi) and function to stimulate viral promoters to initiate transcription of early and late viral genes (Cherrington et al., J. Virol., 63:1435-40 (1989); Meier et al., J. Virol., 71:1246-1255 (1997)). The CMV AD169 variant that expresses a viral protein chimera consisting of IE2-YFP (AD1691E2/YFP) was utilized to quantify virus infection in a high-throughput screen by a robust fluorescent signal localized exclusively to the nucleus (8-24 hpi) (Gardner et al., supra (2015); Cohen et al., Viruses, 8 (10): 295 (2016); Cohen et al., J. Virol., 90:10715-10727 (2016)). Using the AD1691E2-YFP reporter virus assay, a collection of the compound libraries (>112,000 compounds) was screened for inhibitors of the early stages of CMV replication using a confocal fluorescence microscopic plate reader (BioTek Cytation3). Infection was calculated as a percentage of nuclei containing YFP and cycloheximide (8 μM) was used as a positive control. The Z′ factor for the optimized assay was >0.5 which was sufficient to initiate screening.
We evaluated 300 primary hits using an assay funnel designed to prioritize compounds based on antiviral activity, specificity, and drug-like properties. This identified two candidates for hit-to-lead optimization that were not Pan Assay Interference compounds (PAINS) (Baell et al., J. Med. Chem., 53:2719-40 (2010); Capuzzi et al., J. Chem. Inf. Model 57:417-427 (2017); Dahlin et al., Assay Drug Dev. Technol., 14:168-174 (2016)). […] The NAPA series was chosen as the primary hit-to-lead series due to its synthetic accessibility and the >2-log range in potency observed in the preliminary SAR that provides a clear pathway to improving antiviral activity and drug-like properties.

Cc1nc(Nc2ccc(NC(=O)c3ccco3)cc2)cc(N2CCCC2)n1 [MBX-4992]
selectivity index (SI) (CC50/IC50): > 50 | IC50 (Human betaherpesvirus 5, AD169, Fibroblast): 1.72 µM
